The values that follow come from patent publication US8404696B2, “Quinazoline-2,4-dione derivative, and medical compositions for the prophylaxis and treatment of cranial nerve disease containing the same” (Shin Poong Pharmaceutical Co., Ltd., priority 2008, dated 2013).

Structures are written as SMILES. In brackets after ≈: the same amount, converted by molar mass.

Test [1] concerns mouse brain cells. Briefly: Inhibitory effect on ROS production in brain cells (DCF-DA, NMDA-induced). In kind it is cell-based. The settings on record: 24 h; dose suppressing 50% of production of reactive oxygen compared to control; mouse brain cells; read-out: ROS inhibitory effect ID50. As for the experimental part: Oxidative stress was measured to test inhibitory effects on the production of reactive oxygen species (ROS) by using DCF-DA, which is a fluorescent probe. Brain cells were obtained from brain cortex of mouse to prepare cell solution with 2×10^6 cells/ml. Each brain cell was treated with 11 μM of DCF-DA followed by reaction in 37° C., 5% CO2 incubator for an hour. After washing twice, Compound 3 was treated with a concentration of 125 μg/ml and 250 μg/ml. At the same time, 300 μM of NMDA was treated and it was incubated in 37° C., 5% CO2 incubator for 24 hours.
(§1) ROS inhibitory effect of compounds was represented to the dose suppressing 50% of production of reactive oxygen compared to control. […] The activity of superoxide dismutase (SOD) was measured by using a kit acquired in Sigma.

Test [2] deals with superoxide dismutase (SOD). Put plainly: Increase of superoxide dismutase (SOD) activity in mouse brain cells. In kind it is cell-based. The settings on record: 100 μg/ml. The method, then: as §1
The test system of test [3] is mixed culture of nerve cells-glial cells. Briefly: Protecting effect on NMDA-induced nerve cell death (LDH release). In kind it is cell-based, ICR mouse. To be noted: 100 μM NMDA, LDH release after 24 hours. In short, it runs like this: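 Embryonic day-14 ICR mouse cortical neurons seeded on cortical glia, Ara-C-treated, then exposed at day 12–15 for 20 min to 100 μM NMDA with compound at 1 or 2 μg/mL. LDH released 24 h later measured colorimetrically as a cell-death index.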

Test [4] relates to thoracic aorta of rats. Briefly: Relaxing effect on thoracic aorta contracted by phenylephrine (organ bath). The settings on record: Rattus norvegicus; 67 μg/mL; phenylephrine 0.5 μM; mean n = 3; read-out: Relaxation percentage. Details: species or system rats of SD species. In short, it runs like this:
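Thoracic aortic rings (2 mm) from ether-anesthetized male SD rats (250-300 g) were mounted in Krebs buffer gassed with 95% O2/5% CO2 and equilibrated at 1.0 g basal tension for 90 min. After stable contraction with phenylephrine (0.5 μM), compounds were added and relaxation recorded.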

For test [5], the system named is pentylentetrazole (PTZ)-induced convulsion. Put plainly: Anti-convulsant effect, pentylentetrazole (PTZ) test. In kind it is in vivo. To be noted: 10 mg/kg intraperitoneally, PTZ 80 mg/kg subcutaneously; for mortality rate / Induction percentage of convulsion: (animals/total); for mortality rate: negative control 70(17/23); for Induction percentage of convulsion: negative control 100(23/23); for Initiation time of convulsion: negative control 5.0 ± 0.7; for Duration of convulsion: negative control 46.7 ± 3.3. In short, it runs like this:
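Compound was given intraperitoneally at 10 mg/kg before PTZ challenge. The read-outs were time to convulsion onset, time until convulsions fully disappeared, and mortality.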

On to `CC(=O)N(CCCCN(CCCn1c(=O)[nH]c2ccccc2c1=O)Cc1ccccc1)CCCn1c(=O)[nH]c2ccccc2c1=O` [Compound 13, N-(4-{benzyl-[3-(2,4-dioxo-1,4-dihydro-2H-quinazolin-3-yl)propyl]amino}butyl)-N-[3-(2,4-dioxo-1,4-dihydro-2H-quinazolin-3-yl)propyl]acetamide], for which the IC50 in test [1] is 87.3 ± 10.9 µg/mL (≈ 140 µM). The “Increase of SOD activity, compared to control” value (shortened to “Increase of SOD activity”) in test [2] came out at 7.6 ± 2.9. The “Inhibitory effect of cell death by NMDA-induced excitable neurotoxicity” value (“Inhibitory effect of cell death” below) in test [3] (1 μg/ml compound) is given as 17.4%; in test [3] (2 μg/ml compound) it was 23.0%. Moreover, in test [4], the inhibition at 67 µg/mL came out at 9.3%.

For the molecule `O=C(OCc1ccccc1)N(CCCCNCCCn1c(=O)[nH]c2ccccc2c1=O)CCCn1c(=O)[nH]c2ccccc2c1=O` [Compound 39, [3-(2,4-dioxo-1,4-dihydro-2H-quinazolin-3-yl)propyl]-{4-[3-(2,4-dioxo-1,4-dihydro-2H-quinazolin-3-yl)propylamino]butyl}carbamic acid benzyl ester], in test [1], the IC50 stood at 32.3 ± 20 µg/mL (≈ 51.5 µM). Further, in test [5], the mortality rate was 0(0/6) %, the “Induction percentage of convulsion” value is recorded as 100(6/6) %, the “Initiation time of convulsion” value came to 9.5 ± 2.8 min and the Duration of convulsion is 19.8 ± 6.4 min. The “Increase of SOD activity” value in test [2] is 19.0 ± 6.3. Further, the “Inhibitory effect of cell death” value in test [3] (1 μg/ml compound) came out at 30.8%. In addition, in test [3] (2 μg/ml compound), the “Inhibitory effect of cell death” value is on record as 17.1%. In addition, the inhibition at 67 µg/mL in test [4] was 54.8%.

`O=c1[nH]c2ccccc2c(=O)n1CCNCCCNCCn1c(=O)[nH]c2ccccc2c1=O` [Compound 23, 3-(2-{3-[2-(2,4-dioxo-1,4-dihydro-2H-quinazolin-3-yl)ethylamino]propylamino}ethyl)-1H-quinazoline-2,4-dione]: the IC50 in test [1] was 55.5 ± 27.2 µg/mL (≈ 123 µM). Further, in test [5], the mortality rate was 33(2/6) %, the “Induction percentage of convulsion” value was 100(6/6) %, the “Initiation time of convulsion” value is listed as 9.3 ± 2.5 min and the Duration of convulsion was 28.7 ± 8.6 min. For the same molecule, the “Increase of SOD activity” value in test [2] is on record as 4.0 ± 10. The “Inhibitory effect of cell death” value in test [3] (1 μg/ml compound) turned out to be 36.0%. In addition, in test [3] (2 μg/ml compound), the “Inhibitory effect of cell death” value is given as 32.2%. In addition, the inhibition at 67 µg/mL in test [4] amounted to 20.4%.

`COCC(=O)N(CCCCNCCCn1c(=O)[nH]c2ccccc2c1=O)CCCn1c(=O)[nH]c2ccccc2c1=O` [Compound 38, N-[3-(2,4-dioxo-1,4-dihydro-2H-quinazolin-3-yl)propyl]-N-{4-[3-(2,4-dioxo-1,4-dihydro-2H-quinazolin-3-yl)propylamino]butyl}-2-methoxyacetamide]: the IC50 in test [1] worked out at 136 ± 11 µg/mL (≈ 241 µM). Moreover, in test [5], the mortality rate is on record as 17(1/6) %, the “Induction percentage of convulsion” value is listed as 83(5/6) %, the “Initiation time of convulsion” value worked out at 16.0 ± 9.0 min and the Duration of convulsion was determined as 11.2 ± 7.3 min. The “Increase of SOD activity” value in test [2] is 3.2 ± 4.9. Besides, the “Inhibitory effect of cell death” value in test [3] (1 μg/ml compound) turned out to be 33.5%. Further, the “Inhibitory effect of cell death” value in test [3] (2 μg/ml compound) stood at 13.5%. Also, the inhibition at 67 µg/mL in test [4] turned out to be 88.2%.

As to `CCCCCCN(CCCCN(CCCn1c(=O)[nH]c2ccccc2c1=O)C(=O)OC(C)(C)C)CCCn1c(=O)[nH]c2ccccc2c1=O` [Compound 30, [3-(2,4-dioxo-1,4-dihydro-2H-quinazolin-3-yl)propyl]-(4-{[3-(2,4-dioxo-1,4-dihydro-2H-quinazolin-3-yl)propyl]hexylamino}butyl)carbamic acid tert-butyl ester], the IC50 in test [1] is 79.5 ± 15.7 µg/mL (≈ 117 µM). Also, in test [5], the mortality rate is listed as 83(5/6) %, the “Induction percentage of convulsion” value was 83(5/6) %, the “Initiation time of convulsion” value is on record as 15.9 ± 9.0 min and the Duration of convulsion came to 44.1 ± 9.0 min. Moreover, the “Increase of SOD activity” value in test [2] came to 6.2 ± 6.2. For the same molecule, the “Inhibitory effect of cell death” value in test [3] (1 μg/ml compound) is 38.3%. In test [3] (2 μg/ml compound), the “Inhibitory effect of cell death” value is given as 44.4%. The inhibition at 67 µg/mL in test [4] turned out to be 40.4%.

On to `Cc1ccc(S(=O)(=O)N(CCCCN(CCCn2c(=O)[nH]c3ccccc3c2=O)S(=O)(=O)c2ccc(C)cc2)CCCn2c(=O)[nH]c3ccccc3c2=O)cc1` [Compound 41, N-[3-(2,4-dioxo-1,4-dihydro-2H-quinazolin-3-yl)propyl]-N-(4-{[3-(2,4-dioxo-1,4-dihydro-2H-quinazolin-3-yl)propyl]-4-methylbenzenesulfonylamino}butyl)-4-methylbenzenesulfonamide], for which the IC50 in test [1] was 27.2 ± 18.6 µg/mL (≈ 34 µM). The “Increase of SOD activity” value in test [2] was found to be 2.0 ± 0.9. Besides, the “Inhibitory effect of cell death” value in test [3] (2 μg/ml compound) worked out at 28.5%. In addition, the inhibition at 67 µg/mL in test [4] was 7.1%.

`O=C(N(CCCCN(CCCn1c(=O)[nH]c2ccccc2c1=O)C(=O)C(F)(F)F)CCCn1c(=O)[nH]c2ccccc2c1=O)C(F)(F)F` [Compound 37, N-[3-(2,4-dioxo-1,4-dihydro-2H-quinazolin-3-yl)propyl]-N-{4-[[3-(2,4-dioxo-1,4-dihydro-2H-quinazolin-3-yl)propyl]-(2,2,2-trifluoroacetyl)amino]butyl}-2,2,2-trifluoroacetamide]: the IC50 in test [1] turned out to be 22.9 ± 17.3 µg/mL (≈ 33.5 µM). For the same molecule, the “Increase of SOD activity” value in test [2] was found to be 2.0 ± 5.8. Moreover, the “Inhibitory effect of cell death” value in test [3] (1 μg/ml compound) stood at 27.3%; in test [3] (2 μg/ml compound) it was 25.0%. The inhibition at 67 µg/mL in test [4] worked out at 7.9%.

For the molecule `O=c1[nH]c2ccccc2c(=O)n1CCCNCC=CCNCCCn1c(=O)[nH]c2ccccc2c1=O` [Compound 25, 3-(3-{4-[3-(2,4-dioxo-1,4-dihydro-2H-quinazolin-3-yl)propylamino]-2-butenylamino}propyl)-1H-quinazoline-2,4-dione], the IC50 in test [1] was determined as 104 ± 32.5 µg/mL (≈ 212 µM). Besides, in test [5], the mortality rate is listed as 83(5/6) %, the “Induction percentage of convulsion” value is reported as 100(6/6) %, the “Initiation time of convulsion” value came to 6.2 ± 1.5 min and the Duration of convulsion is recorded as 48.3 ± 5.9 min. The “Increase of SOD activity” value in test [2] is listed as 1.6 ± 9.3. The “Inhibitory effect of cell death” value in test [3] (1 μg/ml compound) worked out at 35.2%. Besides, the “Inhibitory effect of cell death” value in test [3] (2 μg/ml compound) came to 28.8%. Besides, the inhibition at 67 µg/mL in test [4] was found to be 20%.

On to `CCOC(=O)N(CCCCNCCCn1c(=O)[nH]c2ccccc2c1=O)CCCn1c(=O)[nH]c2ccccc2c1=O` [Compound 5, [3-(2,4-dioxo-1,4-dihydro-2H-quinazolin-3-yl)propyl]-{4-[3-(2,4-dioxo-1,4-dihydro-2H-quinazolin-3-yl)propylamino]butyl}carbamic Acid ethyl ester], for which, in test [1], the IC50 was 24.4 ± 10.5 µg/mL (≈ 43.2 µM). Further, the “Increase of SOD activity” value in test [2] was found to be 2.5 ± 2.8. The “Inhibitory effect of cell death” value in test [3] (1 μg/ml compound) came out at 11.4%; in test [3] (2 μg/ml compound), 39.4%. For the same molecule, in test [4], the inhibition at 67 µg/mL worked out at 19.2%.
